Test results published in the NIST ThermoML archive (doi:10.1016/j.jct.2017.07.016).

Assay: xn = mol fraction of the nth substance listed
Settings: 96.7 kPa, Liquid; for viscosity: Capillary tube (Ostwald / Ubbelohde) method; for mass density: Vibrating tube method

CCCCCCn1cc[n+](C)c1.[Cl-] [1-hexyl-3-methylimidazolium chloride] + CN(C)C=O
Settings | mass density [kg/m3] | viscosity [mPa·s]
303.15 K, x1 = 0.134 | 974.15 | 2.479
303.15 K, x1 = 0.265 | 995.06 | 8.757
303.15 K, x1 = 0.352 | 1004.26 | 20.21
303.15 K, x1 = 0.457 | 1013.06 | 47.11
303.15 K, x1 = 0.591 | 1021.21 | 158.5
303.15 K, x1 = 0.764 | 1029.04 | 666.71
303.15 K, x1 = 0.871 | 1032.74 | 2341.7
303.15 K, x1 = 1 | 1036.07 | 5718.5
308.15 K, x1 = 0.134 | 970.01 | 2.265
308.15 K, x1 = 0.265 | 991.32 | 7.582
308.15 K, x1 = 0.352 | 1000.71 | 16.69
308.15 K, x1 = 0.457 | 1009.56 | 38
308.15 K, x1 = 0.591 | 1018.02 | 120.91
308.15 K, x1 = 0.764 | 1026.03 | 466.32
308.15 K, x1 = 0.871 | 1029.81 | 1478.3
308.15 K, x1 = 1 | 1033.22 | 3430.8
313.15 K, x1 = 0.134 | 965.87 | 2.075
313.15 K, x1 = 0.265 | 987.59 | 6.651
313.15 K, x1 = 0.352 | 997.11 | 14.24
313.15 K, x1 = 0.457 | 1006.09 | 30.89
313.15 K, x1 = 0.591 | 1014.86 | 92.58
313.15 K, x1 = 0.764 | 1023.06 | 333.82
313.15 K, x1 = 0.871 | 1026.9 | 1002.9
313.15 K, x1 = 1 | 1030.38 | 2146.1
318.15 K, x1 = 0.134 | 961.73 | 1.962
318.15 K, x1 = 0.265 | 983.87 | 5.854
318.15 K, x1 = 0.352 | 993.45 | 12.13
318.15 K, x1 = 0.457 | 1002.63 | 25.38
318.15 K, x1 = 0.591 | 1011.71 | 72.08
318.15 K, x1 = 0.764 | 1020.1 | 241.58
318.15 K, x1 = 0.871 | 1023.98 | 685.17
318.15 K, x1 = 1 | 1027.56 | 1390.4
323.15 K, x1 = 0.134 | 957.59 | 1.797
323.15 K, x1 = 0.265 | 980.14 | 5.212
323.15 K, x1 = 0.352 | 989.87 | 10.45
323.15 K, x1 = 0.457 | 999.19 | 21.15
323.15 K, x1 = 0.591 | 1008.57 | 57.17
323.15 K, x1 = 0.764 | 1017.14 | 178.79
323.15 K, x1 = 0.871 | 1021.09 | 479.12
323.15 K, x1 = 1 | 1024.75 | 928.1
328.15 K, x1 = 0.134 | 953.45 | 1.656
328.15 K, x1 = 0.265 | 976.43 | 4.647
328.15 K, x1 = 0.352 | 986.25 | 9.067
328.15 K, x1 = 0.457 | 995.78 | 17.82
328.15 K, x1 = 0.591 | 1005.44 | 45.82
328.15 K, x1 = 0.764 | 1014.17 | 135.89
328.15 K, x1 = 0.871 | 1018.25 | 344.77
328.15 K, x1 = 1 | 1021.92 | 638.79
333.15 K, x1 = 0.134 | 949.31 | 1.544
333.15 K, x1 = 0.265 | 972.72 | 4.175
333.15 K, x1 = 0.352 | 982.75 | 7.933
333.15 K, x1 = 0.457 | 992.43 | 15.17
333.15 K, x1 = 0.591 | 1002.31 | 37.41
333.15 K, x1 = 0.764 | 1011.21 | 104.75
333.15 K, x1 = 0.871 | 1015.42 | 253.05
333.15 K, x1 = 1 | 1019.13 | 453.59
338.15 K, x1 = 0.134 | 945.16 | 1.426
338.15 K, x1 = 0.265 | 969.01 | 3.776
338.15 K, x1 = 0.352 | 979.34 | 7.016
338.15 K, x1 = 0.457 | 989.15 | 13.04
338.15 K, x1 = 0.591 | 999.19 | 30.94
338.15 K, x1 = 0.764 | 1008.27 | 82.3
338.15 K, x1 = 0.871 | 1012.58 | 190.24
338.15 K, x1 = 1 | 1016.38 | 327.52
343.15 K, x1 = 0.134 | 941 | 1.328
343.15 K, x1 = 0.265 | 965.31 | 3.431
343.15 K, x1 = 0.352 | 975.92 | 6.246
343.15 K, x1 = 0.457 | 985.94 | 11.3
343.15 K, x1 = 0.591 | 996.09 | 25.86
343.15 K, x1 = 0.764 | 1005.34 | 65.58
343.15 K, x1 = 0.871 | 1009.75 | 143.98
343.15 K, x1 = 1 | 1013.65 | 243.04
348.15 K, x1 = 0.134 | 936.86 | 1.244
348.15 K, x1 = 0.265 | 961.62 | 3.135
348.15 K, x1 = 0.352 | 972.5 | 5.564
348.15 K, x1 = 0.457 | 982.8 | 9.895
348.15 K, x1 = 0.591 | 992.99 | 21.85
348.15 K, x1 = 0.764 | 1002.41 | 52.81
348.15 K, x1 = 0.871 | 1006.93 | 112.06
348.15 K, x1 = 1 | 1010.91 | 183.45
353.15 K, x1 = 0.134 | 932.7 | 1.171
353.15 K, x1 = 0.265 | 957.92 | 2.875
353.15 K, x1 = 0.352 | 969.09 | 5.007
353.15 K, x1 = 0.457 | 979.67 | 8.708
353.15 K, x1 = 0.591 | 989.9 | 18.59
353.15 K, x1 = 0.764 | 999.51 | 43.42
353.15 K, x1 = 0.871 | 1004.11 | 88.51
353.15 K, x1 = 1 | 1008.18 | 140.06
